Laboratory results taken from patent US12257290B2, “PIC1 inhibition of myeloperoxidase oxidative activity in an animal model” (priority 2018, dated 2025).
Ends that are not written are not given here.

What was measured:
[1] = test system: complement activation in normal human serum (NHS); assay: Ovalbumin-antiovalbumin immune complex-initiated complement activation in normal human serum (C5a, iC3b, SC5b-9 ELISA); format: biochemical
Description: Immune complex activation of NHS was performed as follows. NHS was stimulated with three different types of immune complexes (IC) to induce complement activation. Heat-aggregated IgG was generated by incubating intravenous immune globulin at 50 mg/ml at 63° C. for 30 min [26]. Ovalbumin-antiovalbumin immune complexes were made by incubating 0.01 ml anti-ovalbumin antibody with an equal volume of ovalbumin, at 0.25 mg/nil, at 37° C. for 30 minutes and then storing at 4° C. overnight. C1 immune complexes were formed by incubating 0.02 ml anti-C1q goat sera with 5 μl of C1, at 200 μg/ml, at 30° C. for 30 minutes and then placing in an ice water bath. For C5a and C5b-9 assays, activation of NHS was performed by pre-incubating 5% NHS with titrating concentrations of PA-dPEG24 in 0.3 ml of GVBS^++ buffer for 30 minutes at room temperature. […]
ELISA was performed as follows. […] Colorimetric detection was performed with TMB, stopped with H2SO4 and read on a BioTek Synergy HT plate reader at 450 nm.
To provide confirmation of the results with heat-aggregated IgG, the antigen-antibody immune complex most often utilized in animal models of complement activation, ovalbumin and antiovalbumin [27, 28], was then tested. The ovalbumin-antiovalbumin immune complexes were used to stimulate complement activation in NHS and the same three effectors, C5a, iC3b and C5b-9, were measured. […]

[2] = test system: complement activation in normal human serum (NHS); assay: C1-antiC1q immune complex-initiated complement activation in normal human serum (C5a, iC3b, SC5b-9 ELISA); format: biochemical
Description: Immune complex activation of NHS was performed as follows. NHS was stimulated with three different types of immune complexes (IC) to induce complement activation. Heat-aggregated IgG was generated by incubating intravenous immune globulin at 50 mg/ml at 63° C. for 30 min [26]. Ovalbumin-antiovalbumin immune complexes were made by incubating 0.01 ml anti-ovalbumin antibody with an equal volume of ovalbumin, at 0.25 mg/nil, at 37° C. for 30 minutes and then storing at 4° C. overnight. C1 immune complexes were formed by incubating 0.02 ml anti-C1q goat sera with 5 μl of C1, at 200 μg/ml, at 30° C. for 30 minutes and then placing in an ice water bath. For C5a and C5b-9 assays, activation of NHS was performed by pre-incubating 5% NHS with titrating concentrations of PA-dPEG24 in 0.3 ml of GVBS^++ buffer for 30 minutes at room temperature. Then […] of either heat-aggregated IVIg, or ovalbumin IC, or 5 μI of C1-antiC1q IC was added to the mix for 30 min. at 37° C. This reaction was stopped with the addition of an equal volume of GVBS^−−. For iC3b detection, 1% NHS was used and the rest of the protocol remained the same.
ELISA was performed as follows. Samples were assayed using C5a, iC3b, and SC5b-9 ELISAs. A C5a ELISA kit (R&D Systems) was used per the manufacturer's instructions. ELISAs for iC3b and SC5b-9 were performed as previously described. In iC3b ELISA, a goat anti-human C3 antibody (Complement Technology, Tyler TX) was used in for capture, a mouse anti-human iC3b antibody (Quidel, San Diego CA) for probing, and a goat anti-mouse HRP antibody for detection. In SC5b-9 ELISA, a rabbit anti-human SC5b-9 antibody (Complement Technology) was used for capture, a mouse anti-human SC5b-9 monoclonal antibody (Quidel) for probing, and a chicken anti-mouse HRP antibody for detection. Colorimetric detection was performed with TMB, stopped with H2SO4 and read on a BioTek Synergy HT plate reader at 450 nm.
Due to the importance of anti-C1q antibodies in a subset of patients with SLE, immune complexes with human C1 and anti-C1q antibodies (goat) were generated. […]

human neutrophils = assay: PMA-initiated NET formation by human neutrophils (fluorescence microscopy, PicoGreen free DNA); format: cell-based; conditions: 5 mM PA-dPEG24, PMA + hydrogen peroxide
Description: Neutrophils from the blood of healthy volunteers were purified from heparinized blood by Hypaque-Ficoll step gradient centrifugation, dextran sedimentation, and hypotonic lysis, as previously described.
A Neutrophil Extracellular Trap assay was performed in a microtiter plate as follows. The formation of NETs was induced by incubating 2.0×10^5 neutrophils in a 96 well tissue culture plates with RPMI media alone, or adding 0.05% of H2O2, or 12 nM PMA, or 8 μg/ml MPO, or PA-dPEG24 at various concentrations. For immune complex sera induced NET formation, activated sera was made by adding 5 μl of ovalbumin-anti-ovalbumin immune complex to 5% NHS in 0.3 ml of GVBS^++. This combination was allowed to incubate for 30 minutes at 37° C., and then 0.05 ml was added to the neutrophils in RPMI. Cells were then incubated for 1.5 hours at 37° C. in 5% CO2 incubator.
NET formation was quantitatively assayed as follows. Free DNA was measured by PicoGreen in the supernatant recovered from the NET microtiter plate well assay. Five hundred units of […] (Fisher) were added to each well to allow for digestion of released extracellular DNA for 10 minutes in 37° C. incubator. […] The fluorescence was then quantified on a BioTek microplate reader at Excitation 485 nm/Emission 528 nm.
NET formation was assayed by fluorescence microscopy. […]

IALILEPICCQERAA-dPEG24 (cysteine pairing not given here) [PA-dPEG24, 15-amino acid PEGylated peptide, 24 PEG moieties at the C-terminus]
measured SC5b-9 ([1]; 2 mM PA-dPEG24): at the lower limit of detection
PA-dPEG24 concentration giving statistically significant inhibition of each complement effector (C5a, iC3b, C5b-9) ([1]; ovalbumin-antiovalbumin in NHS, P<0.03 vs immune complex alone): ≥ 0.25 mM
C1-antiC1q generation of iC3b ([2]; 2 mM PA-dPEG24, P<0.02): inhibited by 2 mM PA-dPEG24 (P<0.02) to a level similar to NHS baseline
PA-dPEG24 concentration inhibiting C1-antiC1q generation of SC5b-9 ([2]; P<0.03): ≥ 0.13 mM
C1-antiC1q generation of C5a in NHS ([2]; at each concentration, P<0.03): dose-dependently inhibited
NETs identified by fluorescence microscopy (human neutrophils): did not generate NETs
inhibition of free DNA elaboration (PicoGreen) (human neutrophils; vs no inhibitor, P=0.01): 2.6 fold
